From US9776976B2, “Triazolone compounds and uses thereof” (Inception 2, Inc., priority 2013, dated 2017)
pIC50: −log10 of the molar value. Like-named read-outs stand apart in the source and are kept apart here.

How the values were obtained:
Assay type in all cases: cell-based
[1] = biological target: T1, human PPAR γ (Homo sapiens, UniProt P37231); assay: Human PPARγ reporter assay (Indigo Biosciences kit)
T1 sequence (P37231 1-505): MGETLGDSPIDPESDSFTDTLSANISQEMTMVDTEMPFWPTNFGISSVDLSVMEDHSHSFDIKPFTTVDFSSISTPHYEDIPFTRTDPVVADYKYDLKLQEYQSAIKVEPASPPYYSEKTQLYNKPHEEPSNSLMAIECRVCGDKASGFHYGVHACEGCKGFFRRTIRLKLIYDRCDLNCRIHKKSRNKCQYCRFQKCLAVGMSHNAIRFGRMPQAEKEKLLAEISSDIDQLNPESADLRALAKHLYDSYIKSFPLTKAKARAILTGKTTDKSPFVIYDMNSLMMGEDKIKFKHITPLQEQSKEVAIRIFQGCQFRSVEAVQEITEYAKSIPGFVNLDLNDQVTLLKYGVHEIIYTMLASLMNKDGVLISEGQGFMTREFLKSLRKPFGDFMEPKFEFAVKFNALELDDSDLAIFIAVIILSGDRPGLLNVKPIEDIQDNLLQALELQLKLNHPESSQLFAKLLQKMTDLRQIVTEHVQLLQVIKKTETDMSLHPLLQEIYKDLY
Experimental: (§1) Target Selectivity Assays
(§2) To determine species selectivity, a Mouse PPARα Reporter Assay System was used (Indigo Biosciences, Cat. #M00111). Activity of test compounds to antagonize or agonize other isoforms of human PPAR, for example β/δ and γ, were assessed using the corresponding kits from Indigo Biosciences (Cat. #IB00121 and #IB00101, respectively). In addition to PPAR activity, compounds were also screened for activity against other nuclear hormone receptors including Estrogen Receptor β, Glucocorticoid Receptor and Thyroid Receptor β using commercially available kits (Indigo Biosciences, Cat. #IB00411, IB00201 and IB01101, respectively). Each assay system from Indigo Biosciences uses technology analogous to the human PPARα kit, with the variance being that the cells used for each assay were engineered to over-express the receptor of interest. In addition, the appropriate receptor agonist (included with each kit) was used at ˜EC80 for assays in which antagonist potency was being assessed.

[2] = biological target: T2, Human PPARα (Homo sapiens, UniProt Q07869); assay: Human PPARα Reporter Assay (luciferase, Indigo Biosciences); details: antagonist mode, reporter cells, overnight incubation
T2 construct: host or cells: proprietary non-human mammalian cells
T2 sequence (Q07869 1-468): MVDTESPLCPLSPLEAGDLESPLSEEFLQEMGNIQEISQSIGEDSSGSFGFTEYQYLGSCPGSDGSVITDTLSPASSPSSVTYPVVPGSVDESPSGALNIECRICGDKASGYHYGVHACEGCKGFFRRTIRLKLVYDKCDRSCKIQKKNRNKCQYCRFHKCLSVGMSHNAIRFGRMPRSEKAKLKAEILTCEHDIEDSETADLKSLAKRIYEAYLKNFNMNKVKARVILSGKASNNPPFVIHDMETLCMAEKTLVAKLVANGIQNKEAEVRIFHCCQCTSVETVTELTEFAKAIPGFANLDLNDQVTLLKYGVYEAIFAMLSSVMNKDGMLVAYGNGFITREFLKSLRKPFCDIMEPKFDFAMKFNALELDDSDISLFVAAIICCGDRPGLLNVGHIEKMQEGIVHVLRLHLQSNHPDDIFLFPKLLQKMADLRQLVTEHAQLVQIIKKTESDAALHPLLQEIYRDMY
Experimental: Human PPARα Reporter Assay The screening of test compounds for agonist or antagonist activities against human PPARα receptors was performed using a commercial kit, Human PPARα Reporter Assay System (Indigo Biosciences, Cat. #IB00111). This nuclear receptor assay system utilizes proprietary non-human mammalian cells engineered to provide constitutive, high-level expression of Human PPARα. Because these cells incorporate a PPARα-responsive luciferase reporter gene, quantifying expressed luciferase activity provides a sensitive surrogate measure of PPARα activity in the treated cells. The primary application of this reporter assay system is in the screening of test samples to quantify any functional activity, either agonist or antagonist, that they may exert against human PPARα. […] Briefly, reporter cells are dispensed into wells of the assay plate and then immediately dosed with test compounds. Following an overnight incubation, the treatment media is discarded and Luciferase Detection Reagent (LDR) is added. The intensity of light emission from the ensuing luciferase reaction provides a sensitive measure that is directly proportional to the relative level of PPARα activation in the reporter cells.

[3] = biological target: T3, human PPAR β/δ (Homo sapiens, UniProt Q03181); assay: Human PPAR β/δ reporter assay (luciferase, Indigo Biosciences kit); details: antagonist mode, agonist at ~EC80; read-out: PPARδ Luciferase IC50
T3 construct: host or cells: engineered reporter cells (analogous to the PPARα kit)
T3 sequence (Q03181 1-441): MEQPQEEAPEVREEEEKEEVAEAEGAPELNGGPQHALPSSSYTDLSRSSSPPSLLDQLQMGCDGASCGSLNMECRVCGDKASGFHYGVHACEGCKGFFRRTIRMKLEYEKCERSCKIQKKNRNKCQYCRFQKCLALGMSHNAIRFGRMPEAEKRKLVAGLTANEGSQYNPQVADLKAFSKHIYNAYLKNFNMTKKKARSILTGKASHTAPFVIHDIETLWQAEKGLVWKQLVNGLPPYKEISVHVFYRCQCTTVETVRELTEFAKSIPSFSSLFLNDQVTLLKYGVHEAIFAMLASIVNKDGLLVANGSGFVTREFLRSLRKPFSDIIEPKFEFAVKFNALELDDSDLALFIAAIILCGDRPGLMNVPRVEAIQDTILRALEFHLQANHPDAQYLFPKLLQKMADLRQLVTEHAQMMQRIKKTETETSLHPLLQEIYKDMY
Experimental: as §1, §2

[4] = antagonist mode, agonist at ~EC80, read-out: PPARγ

COc1ccc(-c2ccc(CCCc3nn(-c4ccc(C(F)(F)F)cc4)c(=O)n3Cc3ccccc3F)cc2)cc1CC(=O)O [Example 15, 2-(4′-(3-(4-(2-fluorobenzyl)-5-oxo-1-(4-(trifluoromethyl)phenyl)-4,5-dihydro-1H-1,2,4-triazol-3-yl)propyl)-4-methoxy-[1,1′-biphenyl]-3-yl)acetic acid]
pIC50 [1, 4]: < 4.00
pIC50 [2]: 4.41
pIC50 [3]: 5.08

CCOc1ccc(-c2ccc(CCCc3nn(-c4ccc(C(F)(F)F)cc4)c(=O)n3-c3ccccc3F)cc2C)cc1CC(=O)O [Example 9, 2-(4-ethoxy-4′-(3-(4-(2-fluorophenyl)-5-oxo-1-(4-(trifluoromethyl)phenyl)-4,5-dihydro-1H-1,2,4-triazol-3-yl)propyl)-2′-methyl-[1,1% biphenyl]-3-yl)acetic acid]
pIC50 [1, 4]: 4.40
pIC50 [2]: 6.60
pIC50 [3]: 6.51

CCCn1c(CCCc2ccc(-c3cccc(NS(=O)(=O)c4ccccc4)n3)cc2)nn(-c2ccc(C(F)(F)F)cc2)c1=O [Example 13, N-(6-(4-(3-(5-oxo-4-propyl-1-(4-(trifluoromethyl)phenyl)-4,5-dihydro-1H-1,2,4-triazol-3-yl)propyl)phenyl)pyridin-2-yl)benzenesulfonamide]
pIC50 [1, 4]: < 4.00
pIC50 [2]: 6.74
pIC50 [3]: 5.94

COc1ccc(-c2ccc(CCCc3nn(-c4ccc(C(F)(F)F)cc4)c(=O)n3C3CC3)cc2)cc1CC(=O)O [Example 14, 2-(4′-(3-(4-cyclopropyl-5-oxo-1-(4-(trifluoromethyl)phenyl)-4,5-dihydro-1H-1,2,4-triazol-3-yl)propyl)-4-methoxy-[1,1′-biphenyl]-3-yl)acetic acid]
pIC50 [1, 4]: 4.27
pIC50 [2]: 6.97
pIC50 [3]: 6.16

CCOc1ccc(-c2ccc(CCCc3nn(-c4ccc(C(F)(F)F)cc4)c(=O)n3-c3ccccc3Cl)cc2)cc1CC(=O)O [Example 19]
pIC50 [1, 4]: 4.65
pIC50 [2]: 7.51
pIC50 [3]: 7.49

CCOc1ccc(-c2ccc(CCCc3nn(-c4ccc(C(F)(F)F)cc4Cl)c(=O)n3-c3ccccc3F)cc2)cc1CC(=O)O [Example 33, 2-(4-ethoxy-4′-(3-(4-(2-fluorophenyl)-5-oxo-1-(2-chloro-4-(trifluoromethyl)phenyl)-4,5-dihydro-1H-1,2,4-triazol-3-yl)propyl)-[1,1′-biphenyl]-3-yl)acetic acid]
pIC50 [1, 4]: 4.49
pIC50 [2]: 6.86
pIC50 [3]: 6.13

CCOc1ccc(-c2ccc(CCCc3nn(-c4ccc(C(F)(F)F)cc4)c(=O)n3CC(C)C)cc2)cc1CC(=O)O [Example 20]
pIC50 [1, 4]: 4.48
pIC50 [2]: 6.82
pIC50 [3]: 6.44

CCOc1ccc(-c2ccc(CCCc3nn(-c4ccc(C(F)(F)F)cc4)c(=O)n3-c3ccccc3F)cc2)cc1C(=O)O [Example 32, 4-ethoxy-4′-(3-(4-(2-fluorophenyl)-5-oxo-1-(4-(trifluoromethyl)phenyl)-4,5-dihydro-1H-1,2,4-triazol-3-yl)propyl)-[1,1′-biphenyl]-3-carboxylic acid]
pIC50 [1, 4]: 4.20

CCOc1ccc(-c2ccc(CCCc3nn(-c4ccc(C(F)(F)F)cc4)c(=O)n3-c3ccccc3CC)cc2)cc1CC(=O)O [Example 25, 2-(4-ethoxy-4′-(3-(4-(2-ethylphenyl)-5-oxo-1-(4-(trifluoromethyl)phenyl)-4,5-dihydro-1H-1,2,4-triazol-3-yl)propyl)-[1,1′-biphenyl]-3-yl)acetic acid]
pIC50 [1, 4]: 4.54
pIC50 [2]: 6.46
pIC50 [3]: 7.00

CCCOc1ccc(-c2ccc(CCCc3nn(-c4ccc(C(F)(F)F)cc4)c(=O)n3-c3ccccc3F)cc2)cc1CC(=O)O [Example 39, 2-(4-propoxy-4′-(3-(4-(2-fluorophenyl)-5-oxo-1-(4-(trifluoromethyl)phenyl)-4,5-dihydro-1H-1,2,4-triazol-3-yl)propyl)-[1,1′-biphenyl-]-3-yl)acetic acid]
pIC50 [1, 4]: 4.70
pIC50 [2]: 6.95
pIC50 [3]: 7.47

CCOc1ccc(-c2ccc(CCCc3nn(-c4ccc(C(F)(F)F)cc4)c(=O)n3-c3ccccc3F)cc2C)cc1C(=O)O [Example 11, 4-ethoxy-4′-(3-(4-(2-fluorophenyl)-5-oxo-1-(4-(trifluoromethyl)phenyl)-4,5-dihydro-1H-1,2,4-triazol-3-yl)propyl)-2′-methyl-[1,1% biphenyl-]-3-carboxylic acid]
pIC50 [1, 4]: 4.61
pIC50 [2]: 7.38
pIC50 [3]: 6.91

CCCn1c(CCCc2ccc(-c3ccc(OCC)c(CC(=O)O)c3)cc2)nn(-c2ccc(C(F)(F)F)cc2)c1=O [Example 3, 2-(4-ethoxy-4′-(3-(5-oxo-4-propyl-1-(4-(trifluoromethyl)phenyl)-4,5-dihydro-1H-1,2,4-triazol-3-yl)propyl)-[1,1′-biphenyl]-3-yl)acetic acid]
pIC50 [1, 4]: 4.30
pIC50 [2]: 6.95
pIC50 [3]: 6.32

CCOc1ccc(-c2cccc(CCCc3nn(-c4ccc(C(F)(F)F)cc4)c(=O)n3-c3ccccc3F)c2)cc1CC(=O)O [Example 30, 2-(4-ethoxy-3′-(3-(4-(2-fluorophenyl)-5-oxo-1-(4-(trifluoromethyl)phenyl)-4,5-dihydro-1H-1,2,4-triazol-3-yl)propyl)-[1,1′-biphenyl]-3-yl)acetic acid]
pIC50 [1, 4]: 4.56
pIC50 [2]: 6.41
pIC50 [3]: 7.02

Cc1cc(CCCc2nn(-c3ccc(C(F)(F)F)cc3)c(=O)n2-c2ccccc2F)ccc1-c1ccc(C(F)(F)F)c(C(=O)O)c1 [Example 10, 4′-(3-(4-(2-fluorophenyl)-5-oxo-1-(4-(trifluoromethyl)phenyl)-4,5-dihydro-1H-1,2,4-triazol-3-yl)propyl)-2′-methyl-(4-trifluoromethyl)-[1,1′-biphenyl-]-3-carboxylic acid]
pIC50 [1, 4]: 4.55
pIC50 [2]: 6.72
pIC50 [3]: 6.70

CCOc1ccc(-c2ccc(CCCc3nn(-c4ccc(C(F)(F)F)cc4)c(=O)n3C3CCC(C)CC3)cc2)cc1CC(=O)O (stereo not drawn) [Example 5]
pIC50 [1, 4]: 4.40
pIC50 [2]: 6.96
pIC50 [3]: 6.90

CCOc1ccc(-c2ccc(CCCc3nn(-c4ccccc4F)c(=O)n3-c3ccc(C(F)(F)F)cc3)cc2)cc1CC(=O)O [Example 36, 2-(4-ethoxy-4′-(3-(1-(2-fluorophenyl)-5-oxo-4-(4-(trifluoromethyl)phenyl)-4,5-dihydro-1H-1,2,4-triazol-3-yl)propyl)-[1,1′-biphenyl]-3-yl)acetic acid]
pIC50 [1, 4]: 4.10

CCOc1ccc(-c2ccc(CCCc3nn(-c4ccc(C(F)(F)F)cc4)c(=O)n3-c3ccccc3OC)cc2)cc1CC(=O)O [Example 26]
pIC50 [1]: 4.83
